# Data reported in US20230365592A1 (Agios Pharmaceuticals, Inc., priority 2022, published 2023).
# Target: T1, human PAH with the R408W mutation (Homo sapiens, UniProt P00439, R408W)
# T1 construct: expressed in transfected cells
# T1 sequence (P00439 1-452 R408W): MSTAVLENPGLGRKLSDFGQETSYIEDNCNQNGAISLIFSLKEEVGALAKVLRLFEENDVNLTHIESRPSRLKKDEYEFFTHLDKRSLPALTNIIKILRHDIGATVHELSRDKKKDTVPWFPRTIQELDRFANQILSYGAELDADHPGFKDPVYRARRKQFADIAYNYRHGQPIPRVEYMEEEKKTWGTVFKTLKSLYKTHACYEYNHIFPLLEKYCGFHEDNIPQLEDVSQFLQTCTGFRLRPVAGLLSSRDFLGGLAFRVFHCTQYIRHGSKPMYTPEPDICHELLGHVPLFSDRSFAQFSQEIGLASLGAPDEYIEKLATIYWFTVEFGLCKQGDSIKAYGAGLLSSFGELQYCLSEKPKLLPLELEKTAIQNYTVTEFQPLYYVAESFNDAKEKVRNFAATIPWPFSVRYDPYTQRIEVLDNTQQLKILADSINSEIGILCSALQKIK
# Assay: Cell Based Phenylalanine Flux Assay;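 also: after compound treatment, cells received sepiapterin plus isotope-labelled Phenylalanine for 4 hours, then labelled Tyrosine in the medium was quantified, 10-point 2-fold dilution series run in duplicate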
# Settings: A375 cells expressing human R408W PAH; 24 hrs compound incubation; 13C-Tyrosine by LC-MS; average where tested multiple times; read-out: AC50
# Procedure: Compounds were resuspended in DMSO, and 2-fold serial dilutions were performed to generate a 10-point dose curve. Compounds were added to plated cells in a total volume of 100 µl, and a final DMSO concentration of 0.5%. Each compound was tested in duplicate. Following compound addition, cells were placed in a 5% CO2, 37° C. tissue culture incubator for 24 hrs. After the incubation period, 20 µM sepiapterin and 800 µM 13C9,15N-Phenylalanine were added. After 4 hours, cell media was removed. An aliquot of 10 µl of cell media was combined with 200 µl of extraction buffer (80% acetonitrile/20% H2O) for each well. Determination of ^13C-Tyrosine concentration was assessed by liquid chromatography mass spectrometry.
# Where a compound was tested multiple times, the average value of the tests is reported.
row,Compound,AC50 [nM]
1,"Cc1cccc(-c2nnc(C(=O)N3CCc4[nH]cnc4[C@H]3c3cc4cccc(F)n4n3)o2)n1 [Example 1496, (S)-(4-(7-fluoropyrazolo[1,5-a]pyridin-2-yl)-6,7-dihydro-1H-imidazo[4,5-c]pyridin-5(4H)-yl)(5-(6-methylpyridin-2-yl)-1,3,4-oxadiazol-2-yl)methanone]",< 500
2,"Cc1cccc(-c2nnc(C(=O)N3CCc4[nH]cnc4[C@@H]3c3cc4cccc(F)n4n3)o2)n1 [Example 1497, (R)-(4-(7-fluoropyrazolo[1,5-a]pyridin-2-yl)-6,7-dihydro-1H-imidazo[4,5-c]pyridin-5(4H)-yl)(5-(6-methylpyridin-2-yl)-1,3,4-oxadiazol-2-yl)methanone]",1000 to 5000
3,"O=C(c1nnc(-c2ncccn2)o1)N1CCc2[nH]cnc2[C@H]1c1cc2cccc(C(F)F)n2n1 [Example 1499, (S)-(4-(7-(difluoromethyl)pyrazolo[1,5-a]pyridin-2-yl)-6,7-dihydro-1H-imidazo[4,5-c]pyridin-5(4H)-yl)(5-(pyrimidin-2-yl)-1,3,4-oxadiazol-2-yl)methanone]",500 to 1000
4,"Cc1ncccc1-c1nnc(C(=O)N2CCc3[nH]cnc3[C@H]2c2cc3cccc(C(F)F)n3n2)o1 [Example 1500, (S)-(4-(7-(difluoromethyl)pyrazolo[1,5-a]pyridin-2-yl)-6,7-dihydro-1H-imidazo[4,5-c]pyridin-5(4H)-yl)(5-(2-methylpyridin-3-yl)-1,3,4-oxadiazol-2-yl)methanone]",< 500
5,"Cc1ncccc1-c1nnc(C(=O)N2CCc3[nH]cnc3[C@@H]2c2cc3cccc(C(F)F)n3n2)o1 [Example 1501, (R)-(4-(7-(difluoromethyl)pyrazolo[1,5-a]pyridin-2-yl)-6,7-dihydro-1H-imidazo[4,5-c]pyridin-5(4H)-yl)(5-(2-methylpyridin-3-yl)-1,3,4-oxadiazol-2-yl)methanone]",> 5000
6,"O=C(c1nnc(-c2cnn(C(F)(F)F)c2)o1)N1CCc2[nH]cnc2[C@@H]1c1cc2cccc(C(F)F)n2n1 [Example 1503, (R)-(4-(7-(difluoromethyl)pyrazolo[1,5-a]pyridin-2-yl)-6,7-dihydro-1H-imidazo-[4,5-c]pyridin-5(4H)-yl)(5-(1-(trifluoromethyl)-1H-pyrazol-4-yl)-1,3,4-oxadiazol-2-yl)methanone]",> 5000
7,"O=C(c1nnc(-c2cnn(C(F)(F)F)c2)o1)N1CCc2[nH]cnc2[C@H]1c1cc2c(Cl)cccn2n1 [Example 1504, (S)-(4-(4-chloropyrazolo[1,5-a]pyridin-2-yl)-6,7-dihydro-1H-imidazo[4,5-c]pyridin-5(4H)-yl)(5-(1-(trifluoromethyl)-1H-pyrazol-4-yl)-1,3,4-oxadiazol-2-yl)methanone]",< 500
8,"O=C(c1nnc(-c2ccn(C(F)(F)F)n2)o1)N1CCc2[nH]cnc2[C@H]1c1cc2ccccn2n1 [Example 1506, (S)-(4-(pyrazolo[1,5-a]pyridin-2-yl)-6,7-dihydro-1H-imidazo[4,5-c]pyridin-5(4H)-yl)(5-(1-(trifluoromethyl)-1H-pyrazol-3-yl)-1,3,4-oxadiazol-2-yl)methanone]",< 500
9,"O=C(c1nnc(-c2ccn(C(F)(F)F)n2)o1)N1CCc2[nH]cnc2[C@@H]1c1cc2ccccn2n1 [Example 1507, (R)-(4-(pyrazolo[1,5-a]pyridin-2-yl)-6,7-dihydro-1H-imidazo[4,5-c]pyridin-5(4H)-yl)(5-(1-(trifluoromethyl)-1H-pyrazol-3-yl)-1,3,4-oxadiazol-2-yl)methanone]",> 5000
10,"O=C(c1nnc(-c2ccn(C(F)(F)F)n2)o1)N1CCc2[nH]cnc2[C@H]1c1cc2c(C(F)(F)F)cccn2n1 [Example 1512, (S)-(5-(1-(trifluoromethyl)-1H-pyrazol-3-yl)-1,3,4-oxadiazol-2-yl)(4-(4-(trifluoromethyl)pyrazolo[1,5-a]pyridin-2-yl)-6,7-dihydro-1H-imidazo[4,5-c]pyridin-5(4H)-yl)methanone]",< 500
11,"O=C(c1nnc(-c2ccn(C(F)(F)F)n2)o1)N1CCc2[nH]cnc2[C@@H]1c1cc2c(C(F)(F)F)cccn2n1 [Example 1513, (R)-(5-(1-(trifluoromethyl)-1H-pyrazol-3-yl)-1,3,4-oxadiazol-2-yl)(4-(4-(trifluoromethyl)pyrazolo[1,5-a]pyridin-2-yl)-6,7-dihydro-1H-imidazo[4,5-c]pyridin-5(4H)-yl)methanone]",1000 to 5000
12,"O=C(c1nnc(C2CCC2)o1)N1CCc2[nH]cnc2[C@H]1c1cc2ccccn2n1 [Example 1514, (S)-(5-cyclobutyl-1,3,4-oxadiazol-2-yl)(4-(pyrazolo[1,5-a]pyridin-2-yl)-6,7-dihydro-1H-imidazo[4,5-c]pyridin-5(4H)-yl)methanone]",< 500
13,"O=C(c1nnc(C2CCC2)o1)N1CCc2[nH]cnc2[C@@H]1c1cc2c(C(F)F)cccn2n1 [Example 1521, (R)-(5-cyclobutyl-1,3,4-oxadiazol-2-yl)(4-(4-(difluoromethyl)pyrazolo[1,5-a]pyridin-2-yl)-6,7-dihydro-1H-imidazo[4,5-c]pyridin-5(4H)-yl)methanone]",1000 to 5000
14,"O=C(c1nnc(-c2cccnc2)o1)N1CCc2[nH]cnc2[C@H]1c1cc2cccc(F)n2n1 [Example 1522, (S)-(4-(7-fluoropyrazolo[1,5-a]pyridin-2-yl)-6,7-dihydro-1H-imidazo[4,5-c]pyridin-5(4H)-yl)(5-(pyridin-3-yl)-1,3,4-oxadiazol-2-yl)methanone]",< 500
15,"O=C(c1nnc(-c2cccnc2)o1)N1CCc2[nH]cnc2[C@@H]1c1cc2cccc(F)n2n1 [Example 1523, (R)-(4-(7-fluoropyrazolo[1,5-a]pyridin-2-yl)-6,7-dihydro-1H-imidazo[4,5-c]pyridin-5(4H)-yl)(5-(pyridin-3-yl)-1,3,4-oxadiazol-2-yl)methanone]",> 5000

# Results, then the molecule that gave them:
row,AC50 [nM],Compound
1,> 5000,"COc1ccc(-c2nnc(C(=O)N3CCc4[nH]cnc4[C@@H]3c3cc4cccc(F)n4n3)o2)nc1 [Example 1524, (R)-(4-(7-fluoropyrazolo[1,5-a]pyridin-2-yl)-6,7-dihydro-1H-imidazo[4,5-c]pyridin-5(4H)-yl)(5-(5-methoxypyridin-2-yl)-1,3,4-oxadiazol-2-yl)methanone]"
2,500 to 1000,"COc1ccc(-c2nnc(C(=O)N3CCc4[nH]cnc4[C@H]3c3cc4cccc(F)n4n3)o2)nc1 [Example 1525, (S)-(4-(7-fluoropyrazolo[1,5-a]pyridin-2-yl)-6,7-dihydro-1H-imidazo[4,5-c]pyridin-5(4H)-yl)(5-(5-methoxypyridin-2-yl)-1,3,4-oxadiazol-2-yl)methanone]"
3,> 5000,"Cn1nccc1-c1nnc(C(=O)N2CCc3[nH]cnc3[C@@H]2c2cc3cccc(F)n3n2)o1 [Example 1527, (R)-(4-(7-fluoropyrazolo[1,5-a]pyridin-2-yl)-6,7-dihydro-1H-imidazo[4,5-c]pyridin-5(4H)-yl)(5-(1-methyl-1H-pyrazol-5-yl)-1,3,4-oxadiazol-2-yl)methanone]"
4,< 500,"Cc1cnn(C)c1-c1nnc(C(=O)N2CCc3[nH]cnc3[C@H]2c2cc3cccc(F)n3n2)o1 [Example 1528, (S)-(5-(1,4-dimethyl-1H-pyrazol-5-yl)-1,3,4-oxadiazol-2-yl)(4-(7-fluoropyrazolo[1,5-a]pyridin-2-yl)-6,7-dihydro-1H-imidazo[4,5-c]pyridin-5(4H)-yl)methanone]"
5,> 5000,"Cc1cc(-c2nnc(C(=O)N3CCc4[nH]cnc4[C@@H]3c3cc4c(C(F)F)cccn4n3)o2)nn1C [Example 1530, (R)-(4-(4-(difluoromethyl)pyrazolo[1,5-a]pyridin-2-yl)-6,7-dihydro-1H-imidazo(4,5-c]pyridin-5(4H)-yl)(5-(1,5-dimethyl-1H-pyrazol-3-yl)-1,3,4-oxadiazol-2-yl)methanone]"
6,< 500,"Cc1cc(-c2nnc(C(=O)N3CCc4[nH]cnc4[C@H]3c3cc4c(C(F)F)cccn4n3)o2)nn1C [Example 1531, (S)-(4-(4-(difluoromethyl)pyrazolo[1,5-a]pyridin-2-yl)-6,7-dihydro-1H-imidazo[4,5-c]pyridin-5(4H)-yl)(5-(1,5-dimethyl-1H-pyrazol-3-yl)-1,3,4-oxadiazol-2-yl)methanone]"
7,< 500,"Cn1nccc1-c1nnc(C(=O)N2CCc3[nH]cnc3[C@H]2c2cc3c(C(F)F)cccn3n2)o1 [Example 1532, (S)-(4-(4-(difluoromethyl)pyrazolo[1,5-a]pyridin-2-yl)-6,7-dihydro-1H-imidazo[4,5-c]pyridin-5(4H)-yl)(5-(1-methyl-1H-pyrazol-5-yl)-1,3,4-oxadiazol-2-yl)methanone]"
8,1000 to 5000,"O=C(c1nnc(-c2cnccn2)o1)N1CCc2[nH]cnc2[C@@H]1c1cc2cccc(C(F)F)n2n1 [Example 1534, (R)-(4-(7-(difluoromethyl)pyrazolo[1,5-a]pyridin-2-yl)-6,7-dihydro-1H-imidazo[4,5-c]pyridin-5(4H)-yl)(5-(pyrazin-2-yl)-1,3,4-oxadiazol-2-yl)methanone]"
9,500 to 1000,"Cc1cc(-c2nnc(C(=O)N3CCc4[nH]cnc4[C@H]3c3cc4cccc(C(F)F)n4n3)o2)nn1C [Example 1537, (S)-(4-(7-(difluoromethyl)pyrazolo[1,5-a]pyridin-2-yl)-6,7-dihydro-1H-imidazo[4,5-c]pyridin-5(4H)-yl)(5-(1,5-dimethyl-1H-pyrazol-3-yl)-1,3,4-oxadiazol-2-yl)methanone]"
